Measurements published in patent US11730788B2, “Use of peptides as therapeutic agent for autoimmune diseases and bone diseases” (KINE SCIENCES CO., LTD., priority 2017, dated 2023).

What was measured:
IL-6 = assay: Inflammatory cytokine IL-6 reduction effect (IL-6 ELISA, THP-1 derived M1 macrophages); format: cell-based; details: LPS 10 ng/ml + IFN-gamma 20 ng/ml, peptide 100 ng/ml, 24 hours, similar to positive control MTX
Description: In order to confirm the efficacy of the synthetic peptides prepared in Example 1 to inhibit inflammatory cytokine IL-6 secretion, a THP-1 monocytic cell line was treated with PMA 50 ng/ml for 48 hours to be differentiated into M1 macrophages. After treatment with LPS 10 ng/ml and IFN-gamma 20 ng/ml to the differentiated M1 macrophages, a positive control group MTX or the synthetic peptides of the present invention were co-treated at a concentration of 100 ng/ml, respectively. Thereafter, after incubation for 24 hours, IL-6 ELISA was performed using a cultured sup.

[1] = test system: collagen-induced arthritis (CIA) mouse model; assay: Rheumatoid arthritis treatment effect in collagen-induced arthritis (CIA) mouse model; format: in vivo, DBA/1J mouse; details: intraperitoneal, 3 times a week after second immunization; versus vehicle PBS; similar efficacy to positive control MTX
Description: In order to confirm a rheumatoid arthritis improvement effect of the peptides prepared in Example 1, a rheumatoid arthritis mouse model was prepared with reference to a known literature (Nat Protoc. 2007; 2 (5): 1269-75.).
Specifically, a CIA mouse model is a mouse model most commonly used in a rheumatoid arthritis animal test as an autoimmune disease arthritis model having characteristics similar to human rheumatoid arthritis. In the CIA mouse model, bovine type II collagen (Chondrex, USA) was mixed and emulsified with a Freund's complete adjuvant (Chondrex, USA) at 1:1, and then first immunization was performed by injecting 50 μl of the emulsified collagen solution intradermally into a 6-week-old DBA/1J mouse tail. On 2 weeks after the first immunization, bovine type II collagen was mixed and emulsified with a Freund's incomplete adjuvant (Chondrex, USA) at 1:1, and then second immunization (boosting) was performed by injecting 50 μl of the emulsified collagen solution induced) intradermally into the mouse tail. After the second immunization, each peptide was intraperitoneally administered 3 times a week from the following day to observe a therapeutic effect of the peptides for rheumatoid arthritis.
In order to examine the progression of rheumatoid arthritis according to the peptide treatment of the present invention, the severity of rheumatoid arthritis over time was evaluated and measured by a rheumatoid arthritis progress index.
At this time, the arthritis progress index was evaluated as Points 0 to 4 per leg in accordance with the arthritis progress evaluation criteria by Rossoliniec, etc. in Table 2 below and shown to total Points 0 to 16 (sum of four legs). Thereafter, an average value of the results evaluated by the two observers was calculated to quantify the severity of arthritis.

[2] = test system: Th17 cell differentiation of naive CD4+ T cells; assay: Th17 cell differentiation inhibitory effect (CD4+IL-17+ T cell population); format: cell-based, mouse; details: IL-6 20 ng/ml + TGF-beta 5 ng/ml + TCR activation; peptide 10 ng/ml to 1000 ng/ml, 3 days; non-induced 1.2%, induced 3.14%
Description: In order to confirm the efficacy of the synthetic peptides prepared in Example 1 to inhibit Th17 cell differentiation, naive CD4^+ T cells extracted from lymph nodes of the mouse were treated with IL-6 20 ng/ml and TGF-beta 5 ng/ml together with TCR activation to induce differentiation into Th17 cells.
At the same time, three peptides Pep1, Pep6, and Pep8 disclosed in Table 2 of Test Example 1 were treated at a concentration of 10 ng/ml to 1000 ng/ml, respectively. Then, after incubation for 3 days, CD4+IL-17+ T cell population was analyzed.

Row | Substance | IL-6 secretion (ELISA of culture sup) (IL-6) | arthritis improvement (arthritis score, total Points 0 to 16) [1] | ratio of Th17 cells (CD4+IL-17+ T cell population) [2]
1 | KDGKDGKDG [Pep5] | significantly reduced | – | –
2 | KEAKEAKEA [Pep7] | significantly reduced | efficacy of arthritis improvement was shown | –
3 | KEAKEA [Pep3] | significantly reduced | – | –
4 | KDAKDA [Pep4] | – | efficacy of arthritis improvement was shown | –
5 | KEGKEG [Pep2] | significantly reduced | – | –
6 | KEGKEGKEG [Pep6] | – | efficacy of arthritis improvement was shown | reduced similarly to the group that did not induce differentiation
7 | KDAKDAKDA [Pep8] | significantly reduced | efficacy of arthritis improvement was shown | reduced similarly to the group that did not induce differentiation
8 | KDGKDG [Pep1] | – | efficacy of arthritis improvement was shown | reduced similarly to the group that did not induce differentiation
